Measured values from patent US20160100572A1, “Enhancement Of Insecticides Against Codling Moth (Lepidoptera: Tortricidae) With L-Aspartate” (priority 2014, published 2016).
Read-outs that look alike come from different tables or passages of the source.

Tests used:
codling moth neonates [1] = assay: Feeding stimulation by L-aspartate on treated apple leaf sections; type: in vivo, Cydia pomonella
Experimental: (§1) Codling moth adults (C. pomonella) were obtained from the U.S. Department of Agriculture Research Service (USDAD ARS) at Yakima, Wash. The moths were kept at 25° C., 70-80% relative humidity, and a photoperiod of 16:8 (L:D) h. Polyethylene foil was provided as an oviposition surface. […] In all experiments, 0.5-1 hour posthatch neonates were used.
Feeding Stimulation by L-Aspartate. The feeding behavior of test larvae was assessed on apple leaf sections treated with L-aspartate solutions, and by a quantitative analysis of the amounts of leaf tissue ingested. Briefly, L-aspartate was dissolved in 0.02% Triton X-100 in distilled water, and the following concentrations were used for treatment of experimental sections: 0.01, 0.1, and 1 mg/ml. Control leaves were treated with the 0.02% aqueous Triton X-100 only. Circular sections of uniform size (12 mm in diameter) were removed from Honeycrisp (U.S. Pat. No. 7,197) foliage, avoiding the leaf rib area. Test solutions (10 μl) were distributed over the upper surface of the excised sections that subsequently were allowed to air-dry. […] Treated sections were placed in bioassay stations and each section was infested with one neonate larva. The surface area of each leaf disc that was consumed was determined using a stereomicroscope equipped with an ocular square mesh reference scale (No. 12-561-RG2; Fisher, Pittsburgh, Pa.). Thirty-three fragments of leaves, chosen randomly from […] of the leaves, were also measured visually and then dried and weighed to establish a relationship between optical measurement and weight of foliage consumed. Based on this determination, consumed areas of the leaf were converted to an estimated dry weight of leaf tissue.
Thirty to forty neonate larvae were tested individually to each concentration of L-aspartate. The amount of leaf tissue consumed by neonates was estimated 3 and 24 hours after infestation of each bioassay station, and was expressed as average (mean±SEM) leaf consumption.

codling moth neonates [2] = type: in vivo; details: addition of 1 mg/ml L-aspartate; LC50 alone divided by LC50 with L-aspartate
Experimental: as §1

codling moth neonates [3] = assay: Foliage consumption on foliage treated with LC30 of insecticide alone or with L-aspartate; type: in vivo, Cydia pomonella; details: LC30 of insecticide alone or with 1 mg/ml L-aspartate, 24 hours
codling moth larvae = assay: Insecticide enhancement with L-aspartate: field trials, fruit damage; type: in vivo, Cydia pomonella; details: for fruit damage reduced by: L-aspartate added to insecticides
Experimental: Field trials were performed in 2010, 2011, and 2012 in a research orchard at the Missouri State Fruit Experiment Station in Mountain Grove, Mo. […] A 1-hectare apple research block was set up for the research. […] To combat these pests and diseases, the block was treated with a standard program of fungicides and insecticides alone or with addition of L-aspartate. An untreated 0.5-hectare refuge for the lepidopteran pests consisting of apple trees that were not treated with fungicides or insecticides was set up on the periphery of the block to provide moderate pressure from the pests, including codling moth.
The same experimental routine was followed each year. Apple trees of Stark Gala variety on M7A rootstock were used in fully randomized design for eight replicates and three treatments (a given insecticide alone, L-aspartate in combination with a given insecticide, and untreated control). Codling moth populations in experimental plots were monitored using delta traps baited with 0.16% codlemone (8E,10E-dodecadien-1-ol). Whenever a weekly count of codling moth males in the traps reached or exceeded five males per trap, an insecticide was applied within the next 1-2 days.
For each replicate, one tree received a spray with an insecticide tank-mixed with L-aspartate. Concentration of L-aspartate was 211 g/100 liters, which corresponded to 395 g/ha. Next, one tree in each replicate was sprayed with the respective insecticide only. Surf-Ac 820 (2.1 kg/ha, 50 g/100 liters) was used as a surfactant in either spray with L-aspartate-insecticide combination or with the respective insecticide only. In addition, one tree in each replicate was left untreated.
Sprays (at delivery rate=4673 liters/ha) were performed using a custom-made motorized handgun sprayer with nine separate tanks (Friend Manufacturing Corporation, Gasport, N.Y.) capable of sending the spray precisely into canopy of height up to 4 meters. To minimize spray drift, a tarpaulin screen was used.
Each year, 200 apples were sampled from each experimental trees treated with insecticide-L-asparate combination, each control tree (treated with insecticides only), and from each untreated tree. One hundred apples per tree were collected 2 weeks after the first flight of codling moth (May 2010, early June in 2011, and May 2012). Remaining apples (100 per tree) were collected at harvest (August in 2010 and 2011 and July in 2012). […] Briefly, 33-34 apples were collected from each of three zones within the canopy (close to the trunk, from the middle of the distance in between the trunk and the tips of the branches, and from the outside portion of the canopy to within 10-15 cm inside). Each time a vertical area from the bottom to the top of the canopy was randomly sampled in a circuitous design around the tree. The apples were immediately weighed and inspected for damage in the laboratory. Once damage was found, the fruit was carefully fragmented with a paring knife, and internal fruit feeders (in some fruits larvae of oriental fruit moth were found) were collected and examined under a stereomicroscope. Codling moth larvae were discriminated from oriental fruit moth larvae by absence of anal comb (Il'ichev et al. 2006). […] Apple weight was expressed as average±SEM weight. Damage was expressed as average±SEM percentage of sampled fruit that was infected by codling moth larvae.

[4] = system: Drosophila N-methyl-D-aspartate (NMDA) receptors; details: excitation of receptors; cited from earlier work
codling moth neonates [5] = details: residues on artificial diet surface; cited from earlier work
[6] = addition of 0.1% Coax; cited from earlier work
Spodoptera frugiperda = details: Nu-Lure, Coax or Konsume, concentrations as high as 10%; cited from earlier work
codling moth neonates [7] = details: earlier studies, cited from earlier work
codling moth neonates [8] = details: cited from earlier work
[9] = system: fourth-instar larvae of Heliothis virescens; details: fed artificial diet; cited from earlier work
[10] = system: fourth-instar larvae of Spodoptera littoralis; details: fed artificial diet; cited from earlier work
[11] = system: neonates of Choristoneura rosaceana; details: 24 hours, concentrations as low as 0.6 ppm (AI); cited from earlier work

Compound: N[C@@H](CC(=O)O)C(=O)O [L-aspartate, L-Aspartic acid]
- concentration at which food consumption increased (codling moth neonates [1]; 3-hour assays): 1 mg/mL
- lowest effective concentration increasing food consumption (codling moth neonates [1]; 24-hour assays): 0.1 mg/mL
- increased foliage consumption in comparison with control (codling moth neonates [1]; 3 hours, 1 mg/ml L-aspartate): approximately 60%
- increased foliage consumption in comparison with control (codling moth neonates [1]; 24 hours, 0.1 mg/ml L-aspartate): approximately 30%
- increased foliage consumption in comparison with control (codling moth neonates [1]; 24 hours, 1 mg/ml L-aspartate): approximately 40%
- efficacy increased by a factor (enhancement ratio) (codling moth neonates [2]): approximately 10
- foliage consumption (codling moth neonates [3]): maintained its feeding stimulatory properties even in the presence of each insecticide
- fruit damage by first-generation neonates after addition of L-aspartate to insecticide sprays (codling moth larvae; 2010): < 1%
- fruit damage by first-generation neonates after addition of L-aspartate to insecticide sprays (codling moth larvae; 2011): 1.2%
- fruit damage by first-generation neonates after addition of L-aspartate to insecticide sprays (codling moth larvae; 2012): 1%
- fruit damage reduced by (codling moth larvae; first generation): 5%
- fruit damage reduced by (codling moth larvae; second generation): 15%
- potency relative to glutamate [4]: about five times less potent than glutamate

Compound: C/C(=N\C#N)N(C)Cc1ccc(Cl)nc1 [acetamiprid]
- LC50 with 95% confidence (codling moth neonates [5]): 1.35 to 2.06 mg (AI)/liter

Compound: CC1(C)C(C=C(Cl)Cl)C1C(=O)OC(C#N)c1cccc(Oc2ccccc2)c1 (stereo not shown) [cypermethrin]
- toxicity increased (times) [6]: 2.4 times

Compound: CC1(C)[C@H](C(=O)O[C@H](C#N)c2cccc(Oc3ccccc3)c2)[C@@H]1C=C(Br)Br [delthamethrin]
- toxicity increased (times) [6]: 11.3 times

Compound: O=C(NC(=O)c1c(F)cccc1F)Nc1ccc(Cl)cc1 [diβubenzuron]
- mortality on adding phagostimulants (Spodoptera frugiperda): unable to significantly increase mortality

Compound: N[C@@H](CCC(=O)O)C(=O)[O-].[Na+] [monosodium glutamate]
- concentration at which food consumption increased (codling moth neonates [7]; 3-hour assays): 0.03 mg/mL
- effective concentration increasing food consumption (codling moth neonates [7]; 24-hour assays): 0.05 mg/mL

Compound: CCc1ccc(C(=O)NN(C(=O)c2cc(C)cc(C)c2)C(C)(C)C)cc1 [tebufenoside]
- mortality on adding phagostimulants (Spodoptera frugiperda): unable to significantly increase mortality

Compound: NC1(C(=O)O)CC(C(=O)O)C1 (stereo not drawn) [trans-ACBD]
- reduction of insecticide active ingredient without sacrificing efficacy (codling moth neonates [8]; in vivo): > 50%

Compound: CC1(C)C(C=C(Cl)Cl)C1C(=O)OC(C#N)c1ccc(F)c(Oc2ccccc2)c1 (stereo not drawn) [β-cyfluthrin]
- LC50 [9]: 3.1 μg/g of diet
- LC50 [10]: 0.1 μg/g of diet

Compound: spinetoram
- mortality [11]: 100%

Compound: spinosad
- efficacy enhancement (codling moth neonates [8]; addition of trans-ACBD): enhanced almost two times
